Experimental data: publication PMC6934184, “Selective DNA-PKcs inhibition extends the therapeutic index of localized radiotherapy and chemotherapy” (The Journal of Clinical Investigation, 2019)

Target: DNA-PK (Homo sapiens, UniProt P78527)
Assay: radiation-induced phospho-DNA-PK Ser2056 in MCF7 cells, Western blot
Format: cell-based
Parameters: endogenous in cells; host or cells: MCF7
Conditions: 1 h pretreatment, 30 min after 10 Gy IR, read-out: IC50, radiation-induced activation of DNA-PK (phospho–DNA-PK Ser2056)
Procedure: Exponentially growing MCF7 cells were exposed to a range of concentrations of NU5455 and NU7441 (0.03–10 μM) for 1 hour. To assess the ability of NU5455 and NU7441 to inhibit autophosphorylation of DNA-PKcs at Ser2056, cells were treated with 10 Gy irradiation and incubated for 30 minutes. Alternatively, to investigate the effects of NU5455 and NU7441 against PI3K-dependent phosphorylation of AKT at Ser473, cells were treated with 50 ng/mL insulin-like growth factor-1 (IGF-1; Invitrogen) for 30 minutes. Cell lysates were prepared for the detection of p–DNA-PKcs Ser2056 and total DNA-PKcs, or p–AKT Ser473 and total AKT, respectively, using Western blotting. […]
Protein lysates were quantified using the Pierce BCA Protein Assay (ThermoFisher). […]
Membranes were then washed in TBST and incubated with HRP-conjugated goat anti-mouse or anti-rabbit antibodies (P0447 and P0448 respectively, Dako) in 5% (w/v) milk/TBST at room temperature for 1-2 hours. Conjugates were detected using Clarity Western ECL Substrate (BioRad) and chemiluminescence imaged using the Fuji LAS-3000 Luminescent Image Analyzer System (Fujifilm). […]
Alternatively, basal pAKT Ser473 levels were subtracted from all other pAKT bands, and pAKT band intensity calculated relative to total AKT expression and given as a percentage relative to IGF-1 stimulated, DMSO-treated cells. […]

SMILES: CN(C(=O)CN1CCOCC1)c1ccc2sc3c(-c4cccc5c(=O)cc(N6CC7CCC(C6)O7)oc45)cccc3c2c1 [NU5455]
- IC50: 168 nM
